Test results from PubChem BioAssay (NCI).
Several values for one entry are separate records, joined by “and”; a condition that tells them apart may be missing. Equal entries are not always repeated.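 A five-concentration, 48-hour dose response in 96-well plates underlies each endpoint, interpolated linearly between surrounding concentrations. Here, GI50 denotes the concentration required for 50% inhibition of growth. Definition used: TGI = concentration required for complete inhibition of growth.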

Experiments:
Experiment in all cases: DTP human tumour cell line panel, 48 h
MALME-3M melanoma = system: MALME-3M melanoma
OVCAR-3 ovarian = system: OVCAR-3 ovarian
NCI-H23 lung = system: NCI-H23 lung
NCI-H522 lung = system: NCI-H522 lung
U251 CNS = system: U251 CNS
DLD-1 colon = system: DLD-1 colon
SNB-19 CNS = system: SNB-19 CNS
LXFL 529 NSCLC = system: LXFL 529 NSCLC
MCF7 breast = system: MCF7 breast
NCI/ADR-RES ovarian = system: NCI/ADR-RES ovarian

SMILES | TGI (MALME-3M melanoma) | TGI (OVCAR-3 ovarian) | TGI (NCI-H23 lung) | TGI (NCI-H522 lung) | TGI (U251 CNS) | TGI (DLD-1 colon) | TGI (SNB-19 CNS) | TGI (LXFL 529 NSCLC) | GI50 (MALME-3M melanoma) | GI50 (OVCAR-3 ovarian) | GI50 (NCI-H23 lung) | GI50 (U251 CNS) | GI50 (DLD-1 colon) | GI50 (SNB-19 CNS) | GI50 (LXFL 529 NSCLC) | TGI (MCF7 breast) | GI50 (NCI-H522 lung) | TGI (NCI/ADR-RES ovarian) | GI50 (MCF7 breast) | GI50 (NCI/ADR-RES ovarian)
O=c1c2ccccc2c(=O)n2n1CC=CC2 | > 100 µM | > 100 µM | > 100 µM | > 100 µM | > 100 µM | > 100 µM | > 100 µM | > 100 µM |  |  |  |  |  |  |  |  |  |  |  | 
COc1ccc2c(c1)[n+]([O-])c(-c1ccc(OC)c(OC)c1)c(N)[n+]2[O-] | > 100 µM | > 100 µM | 57 µM | 31.5 µM | > 100 µM | > 100 µM | > 100 µM | > 100 µM |  |  |  |  |  |  |  |  |  |  |  | 
O=C1NC2(CCCCCC2)C2CCCCCCC12O (stereo unspecified) | > 100 µM | > 100 µM | > 100 µM | > 100 µM | > 100 µM | > 100 µM | > 100 µM | > 100 µM |  |  |  |  |  |  |  |  |  |  |  | 
N.N.N.N.N.[Cl-].[Co+3].c1ccc(-c2nn[n-]n2)cc1 | > 100 µM | > 100 µM | > 100 µM |  | > 100 µM | > 100 µM | > 100 µM | > 100 µM | > 100 µM | > 100 µM | > 100 µM | > 100 µM | > 100 µM | > 100 µM | > 100 µM |  |  |  |  | 
Cc1oc2c(C)c3oc(=O)cc(C)c3cc2c1CN1C(=O)C2OCCOCCOCCOCCOCCO[C@H]2C1=O (stereo partly specified) | > 100 µM | > 100 µM | > 100 µM | > 100 µM | > 100 µM | > 100 µM | > 100 µM | > 100 µM |  |  |  |  |  |  |  |  |  |  |  | 
C1=CC=C2NCCCCCCCNC3=CC=CC=CC3=NCCCCCCCN=C2C=C1 | > 100 µM |  | > 100 µM | > 100 µM |  | > 100 µM | > 100 µM | > 100 µM |  |  |  |  |  |  |  |  |  |  |  | 
COc1cccc2c1C(=O)c1c(O)c3c(c(O)c1C2=O)CC(O)(C(O)CO)CC3OC1CC(N2CCOCC2)C(O)C(C)O1 (stereo unspecified) | 0.00768 µM and 0.0309 µM |  | 0.0249 µM and 0.0419 µM | 0.0172 µM and 0.0956 µM | 1.26 µM and 1.05 µM |  | 0.139 µM and 0.801 µM | 0.0553 µM | 0.0132 µM | 0.0323 µM | 0.0174 µM | 0.0155 µM |  | 0.0305 µM |  | 0.0895 µM | 0.0264 µM | 0.31 µM |  | 
OCC1C(/C=C/c2ccoc2)ON2CCCC12 (stereo unspecified) | > 100 µM |  | > 100 µM | > 100 µM | > 100 µM | > 100 µM | > 100 µM | > 100 µM |  |  |  |  |  |  |  |  |  |  |  | 
c1cc2n(n1)CCN2 | 9920 µM | > 10000 µM | 6720 µM | > 7740 µM | 5740 µM | > 10000 µM | > 10000 µM |  |  |  |  |  |  |  |  | > 8650 µM |  | 6590 µM |  | 
O=C(CC(=O)C1=CNc2ccccc2S1)C(=O)Nc1ccc(Cl)cc1 | > 50 µM | > 50 µM | > 50 µM | > 50 µM | > 50 µM | > 50 µM | > 50 µM | > 50 µM |  |  |  |  |  |  |  |  |  |  |  | 
CC(C)CCCC(C)[C@H]1CCC2[C@@H]3CCC4Nc5nocc5C[C@]4(C)C3CC[C@@]21C (stereo partly specified) | 40.2 µM | 20.5 µM | 31.4 µM | 14.5 µM | 32 µM | 41 µM | 37.5 µM | 27.3 µM |  |  |  |  |  |  |  |  |  |  |  | 
O=C(O/C(=C(/N=Nc1ccccc1)c1ccccc1)c1ccccc1)c1ccccc1 | > 100 µM |  | > 100 µM | > 100 µM | > 100 µM | > 100 µM | > 100 µM | > 100 µM |  |  |  |  |  |  |  |  |  |  |  | 
C=CCC1(O)c2ccccc2C(=O)c2c(NCCN(CC(=O)OCC)CC(=O)OCC)cccc21 (stereo unspecified) | > 100 µM | > 100 µM | > 100 µM | > 100 µM | > 100 µM |  | > 100 µM |  | > 100 µM | > 100 µM | > 100 µM | > 100 µM |  | > 100 µM |  | > 100 µM | > 100 µM | > 100 µM | > 100 µM | > 100 µM
O=C1Nc2nc3ccccc3n2N=C2CCCC12 (stereo unspecified) | > 100 µM | > 100 µM | > 100 µM |  | > 100 µM | > 100 µM | > 100 µM | > 100 µM |  |  |  |  |  |  |  |  |  |  |  | 
CNC(=O)c1cccc2cc(Oc3ccnc4cc(OCC5(N)CC5)c(OC)cc34)ccc12 | 26.8 µM | 23.7 µM | 28.9 µM | 25.6 µM | 23.3 µM |  | 30.4 µM |  | 9.07 µM | 8.86 µM | 11.2 µM | 9.43 µM |  | 5.82 µM |  | 17.8 µM | 8.94 µM | 31.9 µM | 3.89 µM | 12.7 µM
O=c1oc(Cl)c(Cl)c2ccccc12 | > 100 µM | 27.8 µM | > 100 µM | > 100 µM | 52.1 µM |  | > 100 µM |  | 50 µM | 11.7 µM | 50.5 µM | 21.2 µM |  | 27.9 µM |  | > 100 µM | > 100 µM | 41.3 µM | 35.5 µM | 18.1 µM
NC(=O)c1ccc(I)c(N=O)c1 | > 100 µM | 71.5 µM | > 100 µM | 55.3 µM | 36.8 µM |  | > 100 µM |  | 34 µM | 27.4 µM | 51.7 µM | 18.6 µM |  | > 100 µM |  | > 100 µM | 21.4 µM | > 100 µM | 39.6 µM | 44.9 µM
CCCCC[C@H]1C/C=C2/C(=O)C=C[C@@H]2C/C=C\CCCC(=O)O[C@@H](CCCCC)C/C=C2/C(=O)C=C[C@@H]2C/C=C\CCCC(=O)O1 | 0.885 µM | 0.353 µM | 0.822 µM | 0.655 µM | 0.473 µM |  | 0.809 µM |  | 0.338 µM | 0.0955 µM | 0.289 µM | 0.151 µM |  | 0.318 µM |  | 0.484 µM | 0.16 µM | 4.57 µM | 0.119 µM | 0.776 µM
COc1cc(Nc2c(C#N)cnc3cc(OCCCN4CCN(C)CC4)c(OC)cc23)c(Cl)cc1Cl | 3.67 µM | 14.4 µM | 17.7 µM | 6.36 µM | 8.37 µM |  | 21.1 µM |  | 1.83 µM | 2.78 µM | 4.55 µM | 3.1 µM |  | 9.26 µM |  | 17.8 µM | 0.393 µM | 42.9 µM | 2.79 µM | 4.6 µM
CC(=O)C(=Cc1ccc(C=C(C(C)=O)C(C)=O)cc1)C(C)=O | 4.84 µM | 5 µM | 4.59 µM | 1.93 µM | 4.24 µM |  | 5.46 µM |  |  |  |  |  |  |  |  | 2.36 µM |  | 11.2 µM |  | 
